≈ marks a conversion by molar mass, not a printed value.
How the values were obtained:
[1] = Solubility of FDCA in water; assay type: physicochemical
[2] = HMF oxidoreductase assay: FDCA formation in cell extract of P. putida_pJT'hmfH; assay type: biochemical
Method: Cell extracts of wildtype C. basilensis HMF14 or P. putida S12 transformants expressing HMF oxidoreductase were prepared from 50-ml late exponential growth phase cultures using MM supplemented with either 12 mM succinate (C. basilensis HMF14, OD600≈1.5) or 20 mM glucose (P. putida S12, OD600≈4). The cultures were harvested by centrifugation and resuspended in 3 ml of assay buffer. Cells were disrupted by sonication, using either a Branson sonifier (micro tip at pulse mode, output set at 3 and percentage duty cycle set to 40%; 3 cycles of sonication: 45 s of pulsing and 15 s pause) or a Sonics Vibra-Cell (Sonics&Materials, USA) (5 mm tapered microtip; pulse mode set to 1 min (0.5 s pulse, 2 sec pause). After sonication, debris was removed by centrifuging at 8228×g for 3 min at 4° C. The supernatant was desalted using a PD10 gel filtration column (GE healthcare) and used as cell extract for HMF oxidoreductase assays. Protein concentration was measured using Bradford reagent (Sigma-Aldrich).
HMF oxidoreductase assays were performed in cell extracts of wildtype C. basilensis HMF14 or P. putida S12 transformants expressing the C. basilensis HMF14 HMF oxidoreductase. As a negative control, wildtype P. putida S12 or a C. basilensis HMF14 mutant was used that carried a transposon insertion in the hmfH gene. […]

O=C(O)c1ccc(C(=O)O)o1 [FDCA, 2,5-Furan-dicarboxylic acid]
solubility ([1]; aqueous buffer, pH 1.0): ~1500 µg/mL (≈ 9.61 mM)
solubility ([1]; pH 0.5, aqueous buffer): ~400 µg/mL (≈ 2.56 mM)

B1: HmfH: 62 317 Da FAD-dependent GMC-family oxidoreductase of Cupriavidus basilensis HMF14, encoded by hmfH (protein, listed as Cupriavidus basilensis)
chain: MDTPRERFDYVIVGGGSAGCVLANRLSQDPAIRVALIEAGVDTPPDAVPAEILDSYPMPLFFGDRYIWPSLQARAVAGGRSKVYEQGRVMGGGSSINVQAANRGLPRDYDEWAASGASGWSWQDVLPYFRHLERDVDYGNSPLHGSHGPVPIRRILPQAWPPFCTEFAHAMGRSGLSALADQNAEFGDGWFPAAFSNLDDKRVSTAIAYLDADTRRRANLRIYAETTVRKLVVSGREARGVIAMRADGSRLALDAGEVIVSAGALQSPAILMRAGIGDAGALQALGIEVVADRPGVGRNLQDHPALTFCQFLAPQYRMPLSRRRASMTAARFSSGVPGGEASDMYLSSSTRAGWHALGNRLGLFFLWCNRPFSRGQVSLAGAQPDVPPMVELNLLDDERDLRRMVAGVRKLVQIVGASALHQHPGDFFPATFSPRVKALSRVSRGNVLLTELLGAVLDVSGPLRRSLIARFVTGGANLASLLTDESALEGFVRQSVFGVWHASGTCRMGAHADRSAVTDAAGRVHDVGRLRVIDASLMPRLPTANTNIPTIMLAEKIADTMQAERRAVRPASSEVAHPS
substrate oxidation by the enzyme [2]: ability to oxidize HMF-acid to furan-dicarboxylic acid (FDCA)

— patent publication US9481900B2, “Polypeptides having oxidoreductase activity and their uses” (Purac Biochem B.V., priority 2009, dated 2016)
